Results: article PMC10058905, “Bioassay-Guided Alkaloids Isolation from Camellia sinensis and Colchicum luteum: In Silico and In Vitro Evaluations for Protease Inhibition” (Molecules, 2023)

Biological target: T1, Trypsin from bovine pancreas (Bos taurus, UniProt P00760)
T1 construct: gene PRSS1
T1 sequence (P00760 24-246): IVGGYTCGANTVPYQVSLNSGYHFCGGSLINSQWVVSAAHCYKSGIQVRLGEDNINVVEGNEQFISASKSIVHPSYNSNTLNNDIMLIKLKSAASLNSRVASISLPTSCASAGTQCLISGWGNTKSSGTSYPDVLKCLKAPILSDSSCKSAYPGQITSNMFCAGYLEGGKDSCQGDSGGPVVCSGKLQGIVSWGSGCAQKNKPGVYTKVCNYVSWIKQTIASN
Experiment: spectrophotometric BApNA hydrolysis assay, positive control
Assay type: biochemical

Work on `O=S(=O)(F)Cc1ccccc1` [PMSF] yielded an IC50 of 110 ± 20 µM.
